# Measurements taken from US8518875B2, “(Carboxylalkylenephenyl)phenyloxamides, method for the production thereof and use of same as a medicament” (SANOFI, priority 2007, dated 2013).
# Target: T1, GPCR GPR40 (Homo sapiens, UniProt O14842)
# T1 construct: expressed in transfected cells; host or cells: HEK293
# Experiment: In-vitro FLIPR assay with recombinant cells which express the GPCR GPR40
# Type: cell-based
# Details: intracellular Ca2+ in recombinant HEK293 cells expressing GPR40, 100% = 10 μM linoleic acid
# Experimental: In-Vitro FLIPR Assay with Recombinant Cells which Express the GPCR GPR40
# Function-testing assays were carried out by means of the FLIPR technique (“fluorescence imaging plate reader”, Molecular Devices Corp.). For this purpose, agonist-induced alterations in the intracellular concentration of Ca^2+ in recombinant HEK293 cells which express the GPCR GPR40 were determined.
# For the investigations, cells were seeded in 96-well microtiter plates (60 000 cells/well) and left to grow overnight. The medium was removed and the cells were incubated in buffer which contained the fluorescent dye Fluo-4. After this loading with dye, the cells were washed, test substance was added and alterations in the intracellular Ca^2+ concentration were measured in the FLIPR instrument. Results have been depicted as percentage alteration relative to the control (0%: no test substance added; 100%: 10 μM reference agonist linoleic acid added) used to calculate dose/activity plots and EC50 values were determined.
# T1 sequence (O14842 whole entry): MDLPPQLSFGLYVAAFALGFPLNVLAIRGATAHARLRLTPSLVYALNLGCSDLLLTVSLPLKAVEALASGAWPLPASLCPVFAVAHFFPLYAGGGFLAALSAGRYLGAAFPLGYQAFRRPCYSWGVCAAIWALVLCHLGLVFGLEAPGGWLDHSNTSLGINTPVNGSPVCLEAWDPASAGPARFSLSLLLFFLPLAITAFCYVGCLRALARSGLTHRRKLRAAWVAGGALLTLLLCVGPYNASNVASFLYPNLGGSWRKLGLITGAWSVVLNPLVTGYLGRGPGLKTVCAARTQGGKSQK
row,EC50,SMILES
1,600 nM,O=C(O)CCc1ccc(NC(=O)C(=O)Nc2ccc(Br)cc2Cl)cc1 [compound 14]
2,60100 nM,O=C(O)CCc1cccc(NC(=O)C(=O)Nc2c(Cl)c(Cl)cc(Cl)c2Cl)c1 [compound 24]
3,100 nM,CC(C)c1ccc(NC(=O)C(=O)Nc2ccc(CCC(=O)O)cc2)c(C(F)(F)F)c1 [compound 9]
4,700 nM,O=C(O)CCc1ccc(NC(=O)C(=O)Nc2ccc(Cl)cc2Cl)cc1 [compound 7]
5,800 nM,O=C(O)CCc1ccc(NC(=O)C(=O)Nc2cc(C(F)(F)F)ccc2Br)cc1 [compound 11]
6,16800 nM,CC(C)c1ccc(NC(=O)C(=O)Nc2cccc(CCC(=O)O)c2)c(Br)c1 [compound 21]
